The compounds below were run against T1, human EP3 receptor (Homo sapiens, UniProt P43115) (assay: Cellular in vitro assay for determining EP3 receptor activity (human EP3 cell line, sulprostone-stimulated calcium luminescence)). Conditions: CHO cells expressing human EP3 and mitochondrial Clytin; antagonist mode, sulprostone at EC50; read-out: EP3 CHO mtCLY ANTAG IC50.
T1 construct: expressed in transfected cells; host or cells: CHO K1 (Chinese Hamster Ovary), stably co-transfected with Galpha16 and mitochondrial clytin
T1 sequence (P43115 1-390): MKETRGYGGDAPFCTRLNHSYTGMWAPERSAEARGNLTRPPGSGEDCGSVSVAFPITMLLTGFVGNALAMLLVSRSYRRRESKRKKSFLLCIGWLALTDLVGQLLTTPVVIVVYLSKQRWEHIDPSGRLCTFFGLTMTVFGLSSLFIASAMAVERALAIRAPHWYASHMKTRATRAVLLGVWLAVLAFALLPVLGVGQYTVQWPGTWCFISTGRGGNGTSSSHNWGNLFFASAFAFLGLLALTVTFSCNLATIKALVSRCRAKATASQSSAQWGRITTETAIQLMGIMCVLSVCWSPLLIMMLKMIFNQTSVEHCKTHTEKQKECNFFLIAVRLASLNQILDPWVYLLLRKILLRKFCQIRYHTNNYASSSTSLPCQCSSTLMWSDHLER
Type: cell-based
Method in brief: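 CHO K1 cells stably expressing human EP3 with Gα16 and mitochondrial Clytin, loaded overnight with coelenterazine. Compounds added 10 min before sulprostone at its EC50; antagonism read immediately as reduced calcium-driven luminescence, quadruplicate points.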

SMILES | IC50 [nM]
Cc1c(C(=O)NC(C)c2cccnc2)nn2c(C)c(-c3ccc4ccccc4c3)[nH]c(=O)c12 (stereo not shown) [Example 3-73, 3,7-Dimethyl-6-(2-naphthyl)-4-oxo-N-[1-(3-pyridyl)ethyl]-5H-pyrazolo[1,5-a]pyrazine-2-carboxamide] | 2.7
COc1ccc(C(C)NC(=O)c2nn3c(C)c(-c4ccc5ccccc5c4)[nH]c(=O)c3c2C)cc1F (stereo not shown) [Example 3-74, N-[1-(3-Fluoro-4-methoxyphenyl)ethyl]-3,7-dimethyl-6-(2-naphthyl)-4-oxo-5H-pyrazolo[1,5-a]pyrazine-2-carboxamide] | 4.8
Cc1c(C(=O)NC2CCc3ccccc32)nn2c(C)c(-c3ccc4ccccc4c3)[nH]c(=O)c12 (stereo not shown) [Example 3-75, N-(2,3-Dihydro-1H-inden-1-yl)-3,7-dimethyl-6-(2-naphthyl)-4-oxo-4,5-dihydropyrazolo[1,5-a]pyrazine-2-carboxamide] | 6.45
N#Cc1c(C(=O)NC(CO)c2cc(Cl)cc(Cl)c2)nn2cc(-c3ccc4ccccc4c3)[nH]c(=O)c12 (stereo not shown) [Example 3-76, 3-Cyano-N-[1-(3,5-dichlorophenyl)-2-hydroxyethyl]-6-(2-naphthyl)-4-oxo-5H-pyrazolo[1,5-a]pyrazine-2-carboxamide] | 4.35
N#Cc1c(C(=O)NCCn2ccc(C3CC3)n2)nn2cc(-c3ccc4ccccc4c3)[nH]c(=O)c12 [Example 3-77, 3-Cyano-N-[2-(3-cyclopropyl-1H-pyrazol-1-yl)ethyl]-6-(naphthalen-2-yl)-4-oxo-4,5-dihydropyrazolo[1,5-a]pyrazine-2-carboxamide] | 4.65
Cc1cccc2ncc(-c3cn4nc(C(=O)NC5(c6ccc(C#N)cc6)CC5)c(C(C)C)c4c(=O)[nH]3)cc12 [Example 4-3, N-[1-(4-Cyanophenyl)cyclopropyl]-6-(5-methylquinolin-3-yl)-4-oxo-3-(propan-2-yl)-4,5-dihydropyrazolo[1,5-a]pyrazine-2-carboxamide] | 1.65
COc1ccccc1C(C)NC(=O)c1nn2cc(-c3cnc4cccc(C)c4c3)[nH]c(=O)c2c1C(C)C (stereo not shown) [Example 4-4, 3-Isopropyl-N-[1-(2-methoxyphenyl)ethyl]-6-(5-methyl-3-quinolyl)-4-oxo-5H-pyrazolo[1,5-a]pyrazine-2-carboxamide] | 2.45
Cc1cccc2ncc(-c3cn4nc(C(=O)N[C@@H]5CCCc6ccccc65)c(C(C)C)c4c(=O)[nH]3)cc12 [Example 4-5, 6-(5-Methylquinolin-3-yl)-4-oxo-3-(propan-2-yl)-N-[(7R)-1,2,3,4-tetrahydronaphthalen-1-yl]-4,5-dihydropyrazolo[1,5-a]pyrazine-2-carboxamide] | 7.7
COc1ccc(C(C)NC(=O)c2nn3cc(-c4cnc5cccc(C)c5c4)[nH]c(=O)c3c2C(C)C)cc1 (stereo not shown) [Example 4-7, 3-Isopropyl-N-[1-(4-methoxyphenyl)ethyl]-6-(5-methyl-3-quinolyl)-4-oxo-5H-pyrazolo[1,5-a]pyrazine-2-carboxamide] | 1.14
Cc1cccc2ncc(-c3cn4nc(C(=O)NC(C)(C)c5cc(Cl)cc(Cl)c5)c(C(C)C)c4c(=O)[nH]3)cc12 [Example 4-8, N-[2-(3,5-Dichlorophenyl)propan-2-yl]-6-(5-methylquinolin-3-yl)-4-oxo-3-(propan-2-yl)-4,5-dihydropyrazolo[1,5-a]pyrazine-2-carboxamide] | 4.3
Cc1cccc2ncc(-c3cn4nc(C(=O)NC5CCS(=O)(=O)C5)c(C(C)C)c4c(=O)[nH]3)cc12 (stereo not shown) [Example 4-12, N-(1,1-Dioxothiolan-3-yl)-3-isopropyl-6-(5-methyl-3-quinolyl)-4-oxo-5H-pyrazolo[1,5-a]pyrazine-2-carboxamide] | 1.65
Cc1cccc2ncc(-c3cn4nc(C(=O)NC5(C)CCS(=O)(=O)C5)c(C(C)C)c4c(=O)[nH]3)cc12 (stereo not shown) [Example 4-17, 3-Isopropyl-N-(3-methyl-1,1-dioxothiolan-3-yl)-6-(5-methyl-3-quinolyl)-4-oxo-5H-pyrazolo[1,5-a]pyrazine-2-carboxamide] | 2.45

Second part, the compound after the results:

IC50 [nM] | SMILES
1.75 | Cc1cccc2ncc(-c3cn4nc(C(=O)NC(CN(C)C)c5ccccc5)c(C(C)C)c4c(=O)[nH]3)cc12 (stereo not shown) [Example 4-1, N-[2-(Dimethylamino)-1-phenylethyl]-3-isopropyl-6-(5-methyl-3-quinolyl)-4-oxo-5H-pyrazolo[1,5-a]pyrazine-2-carboxamide]
2.8 | Cc1cccc2ncc(-c3cn4nc(C(=O)NCc5cccc(CN(C)C)c5)c(C(C)C)c4c(=O)[nH]3)cc12 [Example 4-2, N-({3-[(Dimethylamino)methyl]phenyl}methyl)-6-(5-methylquinolin-3-yl)-4-oxo-3-(propan-2-yl)-4,5-dihydropyrazolo[1,5-a]pyrazine-2-carboxamide]
1.16 | COc1ccc(C(C)NC(=O)c2nn3cc(-c4cnc5cccc(C)c5c4)[nH]c(=O)c3c2C(C)C)cn1 (stereo not shown) [Example 4-6, 3-Isopropyl-N-[1-(6-methoxy-3-pyridyl)ethyl]-6-(5-methyl-3-quinolyl)-4-oxo-5H-pyrazolo[1,5-a]pyrazine-2-carboxamide]
3.7 | CCc1ccc(C(C)NC(=O)c2nn3cc(-c4cnc5cccc(C)c5c4)[nH]c(=O)c3c2C(C)C)cc1 (stereo not shown) [Example 4-9, N-[1-(4-Ethylphenyl)ethyl]-3-isopropyl-6-(5-methyl-3-quinolyl)-4-oxo-5H-pyrazolo[1,5-a]pyrazine-2-carboxamide]
2 | Cc1[nH]c2ccc(CNC(=O)c3nn4cc(-c5cnc6cccc(C)c6c5)[nH]c(=O)c4c3C(C)C)cc2c1C [Example 4-10, N-[(2,3-Dimethyl-1H-indol-5-yl)methyl]-6-(5-methylquinolin-3-yl)-4-oxo-3-(propan-2-yl)-4,5-dihydropyrazolo[1,5-a]pyrazine-2-carboxamide]
0.735 | Cc1cccc2ncc(-c3cn4nc(C(=O)NC(C)c5ccc(F)cc5)c(C(C)C)c4c(=O)[nH]3)cc12 (stereo not shown) [Example 4-11, N-[1-(4-Fluorophenyl)ethyl]-3-isopropyl-6-(5-methyl-3-quinolyl)-4-oxo-5H-pyrazolo[1,5-a]pyrazine-2-carboxamide]
1.45 | CCn1ccc(C(C)NC(=O)c2nn3cc(-c4cnc5cccc(C)c5c4)[nH]c(=O)c3c2C(C)C)n1 (stereo not shown) [Example 4-13, N-[1-(1-Ethylpyrazol-3-yl)ethyl]-3-isopropyl-6-(5-methyl-3-quinolyl)-4-oxo-5H-pyrazolo[1,5-a]pyrazine-2-carboxamide]
2.5 | Cc1cccc2ncc(-c3cn4nc(C(=O)NCc5cc[nH]n5)c(C(C)C)c4c(=O)[nH]3)cc12 [Example 4-14, 6-(5-Methylquinolin-3-yl)-4-oxo-3-(propan-2-yl)-N-[(1H-pyrazol-3-yl)methyl]-4,5-dihydropyrazolo[1,5-a]pyrazine-2-carboxamide]
2.9 | Cc1cccc2ncc(-c3cn4nc(C(=O)Nc5ccnn5C(C)C)c(C(C)C)c4c(=O)[nH]3)cc12 [Example 4-15, 6-(5-Methylquinolin-3-yl)-4-oxo-3-(propan-2-yl)-N-[1-(propan-2-yl)-1H-pyrazol-5-yl]-4,5-dihydropyrazolo[1,5-a]pyrazine-2-carboxamide]
0.5 | CCn1nccc1CNC(=O)c1nn2cc(-c3cnc4cccc(C)c4c3)[nH]c(=O)c2c1C(C)C [Example 4-16, N-[(1-Ethyl-1H-pyrazol-5-yl)methyl]-6-(5-methylquinolin-3-yl)-4-oxo-3-(propan-2-yl)-4,5-dihydropyrazolo[1,5-a]pyrazine-2-carboxamide]
1.05 | Cc1cccc2ncc(-c3cn4nc(C(=O)NC(C)CC5CC5)c(C(C)C)c4c(=O)[nH]3)cc12 (stereo not shown) [Example 4-18, N-(1-Cyclopropylpropan-2-yl)-3-isopropyl-6-(5-methylquinolin-3-yl)-4-oxo-4,5-dihydropyrazolo[1,5-a]pyrazine-2-carboxamide]
1.75 | Cc1cccc2ncc(-c3cn4nc(C(=O)Nc5ccnn5C)c(C(C)C)c4c(=O)[nH]3)cc12 [Example 4-19, N-(1-Methyl-1H-pyrazol-5-yl)-6-(5-methylquinolin-3-yl)-4-oxo-3-(propan-2-yl)-4,5-dihydropyrazolo[1,5-a]pyrazine-2-carboxamide]
2.9 | CCn1cnnc1CNC(=O)c1nn2cc(-c3cnc4cccc(C)c4c3)[nH]c(=O)c2c1C(C)C [Example 4-20, N-[(4-Ethyl-4H-1,2,4-triazol-3-yl)methyl]-6-(5-methylquinolin-3-yl)-4-oxo-3-(propan-2-yl)-4,5-dihydropyrazolo[1,5-a]pyrazine-2-carboxamide]
1.95 | Cc1cccc2ncc(-c3cn4nc(C(=O)NC5CCOC5)c(C(C)C)c4c(=O)[nH]3)cc12 (stereo not shown) [Example 4-21, 3-Isopropyl-6-(5-methyl-3-quinolyl)-4-oxo-N-(tetrahydrofuran-3-yl)-5H-pyrazolo[1,5-a]pyrazine-2-carboxamide]
0.815 | Cc1cccc2ncc(-c3cn4nc(C(=O)NCc5ccnn5C)c(C(C)C)c4c(=O)[nH]3)cc12 [Example 4-22, N-[(1-Methyl-1H-pyrazol-5-yl)methyl]-6-(5-methylquinolin-3-yl)-4-oxo-3-(propan-2-yl)-4,5-dihydropyrazolo[1,5-a]pyrazine-2-carboxamide]
1.01 | CCn1cc(Cl)c(CNC(=O)c2nn3cc(-c4cnc5cccc(C)c5c4)[nH]c(=O)c3c2C(C)C)n1 [Example 4-23, N-[(4-Chloro-1-ethyl-1H-pyrazol-3-yl)methyl]-6-(5-methylquinolin-3-yl)-4-oxo-3-(propan-2-yl)-4,5-dihydropyrazolo[1,5-a]pyrazine-2-carboxamide]
